Assay results taken from article PMC3516535, “Rhesus Macaque Theta Defensins Suppress Inflammatory Cytokines and Enhance Survival in Mouse Models of Bacteremic Sepsis” (PLoS ONE, 2012).
Bridge positions count the residues as written; N and C are the ends. Peptide text beside a SMILES is read from it.

Legend:
[1] = system: adult chimpanzees
[2] = system: human EDTA-anti-coagulated blood diluted 1∶10; assay: TNF release assay in stimulated diluted whole blood (ELISA); type: cell-based

With `CC[C@H](C)[C@@H]1NC(=O)[C@@H]2CSSC[C@H](NC(=O)[C@H](CCCNC(=N)N)NC(=O)[C@@H]3CSSC[C@H](NC1=O)C(=O)N[C@@H]([C@@H](C)O)C(=O)N[C@@H](CCCNC(=N)N)C(=O)NCC(=O)N[C@@H](Cc1ccccc1)C(=O)N3)C(=O)N[C@@H](CC(C)C)C(=O)N[C@H]1CSSC[C@H](NC(=O)[C@H](C(C)C)NC(=O)CNC(=O)[C@H](CCCNC(=N)N)NC(=O)[C@H](CCCNC(=N)N)NC1=O)C(=O)N[C@@H](CCCNC(=N)N)C(=O)N2` [RTD-1] (cyclo(GFCRCLCRRGVCRCICTR); disulfide 3-16, 5-14, 7-12) the “clinical and injection site effects” value ([1]; escalating i.v. doses (0.2 to 3.0 mg/kg over 14 days), two animals) was “No clinical or injection site effects were observed”, the “comprehensive metabolic panels and complete blood counts with differential” value ([1]; escalating i.v. doses, all time points incl. days 21, 28, 60) was “no abnormalities” and the “anti-RTD-1 antibody (dot blot immunoassay)” value ([1]; serum samples after escalating i.v. doses, two animals) was “No anti-RTD-1 antibody was detected”. The TNF-release inhibition [2] was 70–80% and the “reduction of TNF levels” value [2] was 46–93%.
